# Results as given in US5869484A, “Phenylcarbamate derivatives suitable to the use as anticholinesterase substances” (priority 1994, dated 1999).
# Experiments:
# [1] = target: T1, BuChE hserum (Homo sapiens, UniProt P06276); test: Inhibition of butyrylcholinesterase from human serum (Ellman method); assay type: biochemical; conditions: for activity on the BuChE: Table 1
# T1 construct: purchased Sigma Chemical; host or cells: human serum
# Protocol: (§1) The incubation time between enzyme and product used for the determinations has been 10'.
# (§2) The acetylcholinesterase from human erythrocytes (AChE hRBC), the acetylcholinesterase from Electric Eel (AChE E.eel) and the butyrylcholinesterase from human serum (BuChE hserum) coming from the Sigma Chemical have been used.
# [2] = target: T2, AChE hRBC (Homo sapiens, UniProt P22303); test: biochemical; conditions: for potency compared with eptastigmine, physostigmine or tacrine: comparison from Table 1; for AChE inhibitory activity and selectivity: AChE versus BuChE, Table 1
# T2 construct: purchased Sigma Chemical; host or cells: human erythrocytes
# Protocol: as §1, §2
# [3] = target: T3, AChE E. eel (Electrophorus electricus, UniProt O42275); test: biochemical; set-up: species or system Electric Eel
# T3 construct: purchased Sigma Chemical
# Protocol: as §1, §2
# [4] = Acute toxicity (single administration) in mouse; conditions: in vivo
# [5] = Acute toxicity (single administration) in rat; conditions: in vivo
# [6] = prior art, Eur. Neuropsychopharmacol. 1(3) (1991); cited from earlier work
# [7] = iv, read-out: Toxicity tests (LD50), rat iv
# [8] = po, os, read-out: Toxicity tests (LD50), rat os
# T2 sequence (P22303 32-617 isoform P22303-2 limits assumed): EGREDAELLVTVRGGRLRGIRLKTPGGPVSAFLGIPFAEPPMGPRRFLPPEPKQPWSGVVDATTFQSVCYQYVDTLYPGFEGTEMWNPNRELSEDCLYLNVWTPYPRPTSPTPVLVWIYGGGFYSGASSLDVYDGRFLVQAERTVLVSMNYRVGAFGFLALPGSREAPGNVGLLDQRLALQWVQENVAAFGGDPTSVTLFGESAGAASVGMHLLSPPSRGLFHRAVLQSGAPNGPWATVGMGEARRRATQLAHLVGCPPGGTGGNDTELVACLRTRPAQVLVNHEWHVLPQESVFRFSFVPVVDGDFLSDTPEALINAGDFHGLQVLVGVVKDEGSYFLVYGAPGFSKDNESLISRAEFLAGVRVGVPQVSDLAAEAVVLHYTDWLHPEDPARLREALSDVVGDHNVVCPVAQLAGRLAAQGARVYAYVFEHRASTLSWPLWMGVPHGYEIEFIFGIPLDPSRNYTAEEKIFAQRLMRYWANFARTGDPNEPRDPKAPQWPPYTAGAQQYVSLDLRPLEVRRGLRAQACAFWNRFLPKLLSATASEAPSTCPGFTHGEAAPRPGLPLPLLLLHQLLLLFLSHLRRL
# T3 sequence (O42275 24-633): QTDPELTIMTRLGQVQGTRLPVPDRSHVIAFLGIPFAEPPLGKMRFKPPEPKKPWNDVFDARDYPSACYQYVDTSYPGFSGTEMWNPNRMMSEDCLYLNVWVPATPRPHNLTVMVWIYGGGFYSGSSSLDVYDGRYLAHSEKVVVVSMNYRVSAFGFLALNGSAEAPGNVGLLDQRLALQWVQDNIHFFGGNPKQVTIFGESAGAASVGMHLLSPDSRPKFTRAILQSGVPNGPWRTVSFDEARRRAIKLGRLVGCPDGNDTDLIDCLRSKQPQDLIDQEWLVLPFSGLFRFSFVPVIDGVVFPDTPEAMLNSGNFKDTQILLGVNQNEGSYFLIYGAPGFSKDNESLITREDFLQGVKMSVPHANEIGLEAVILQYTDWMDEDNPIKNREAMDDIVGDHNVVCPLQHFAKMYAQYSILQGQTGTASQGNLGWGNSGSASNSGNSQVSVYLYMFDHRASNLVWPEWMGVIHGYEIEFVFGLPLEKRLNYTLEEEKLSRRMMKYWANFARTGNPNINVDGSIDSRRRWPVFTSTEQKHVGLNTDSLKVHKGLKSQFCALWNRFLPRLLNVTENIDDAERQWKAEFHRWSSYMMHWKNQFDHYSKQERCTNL
# T1 sequence (P06276 29-602): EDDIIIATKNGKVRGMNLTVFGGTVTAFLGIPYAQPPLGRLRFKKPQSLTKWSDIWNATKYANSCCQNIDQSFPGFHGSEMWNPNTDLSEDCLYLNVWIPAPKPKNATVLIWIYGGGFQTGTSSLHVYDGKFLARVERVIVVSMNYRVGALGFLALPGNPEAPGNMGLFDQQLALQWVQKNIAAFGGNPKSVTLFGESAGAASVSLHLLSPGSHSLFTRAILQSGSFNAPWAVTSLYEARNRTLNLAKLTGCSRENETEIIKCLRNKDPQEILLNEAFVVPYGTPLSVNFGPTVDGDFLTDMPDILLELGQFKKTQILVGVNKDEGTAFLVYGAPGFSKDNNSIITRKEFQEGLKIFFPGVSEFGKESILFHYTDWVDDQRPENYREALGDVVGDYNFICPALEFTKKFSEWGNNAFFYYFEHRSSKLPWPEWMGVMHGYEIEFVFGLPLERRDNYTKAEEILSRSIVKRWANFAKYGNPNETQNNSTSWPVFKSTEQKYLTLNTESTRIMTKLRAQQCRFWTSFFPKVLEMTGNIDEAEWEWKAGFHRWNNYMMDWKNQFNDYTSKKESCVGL
SMILES,IC50 [1] [µM],IC50 [2] [µM],IC50 [3] [µM],"potency compared with eptastigmine, physostigmine or tacrine [2]",activity on the BuChE [1],AChE inhibitory activity and selectivity [2],also measured
"C[C@H]1CN(CCCCCCCCNC(=O)Oc2cccc(C(C)(C)CN(C)C)c2)C[C@H](C)O1 (relative stereo) [Ex. 3, 3-[(1-dimethylamino-2-methyl)-prop-2-yl]-N-[8-[4-(trans 2,6-dimethyl)morpholinyl]octyl]-phenylcarbamate]",0.02,0.2,1.2,,,,
"C[C@@H]1CN(CCCCCCCCNC(=O)Oc2cccc(C(C)(C)CN(C)C)c2)C[C@H](C)O1 [Ex. 2, 3-[(1-dimethylamino-2-methyl)-prop-2-yl]-N-8-[[4-(cis2,6-dimethyl)morpholinyl]octyl]-phenylcarbamate]",0.02,0.42,1.1,,,,"LD50 ([4]; po, os, read-out: Toxicity tests (LD50), mouse os): > 50 mg/kg"
"CCCCNC(=O)Oc1cccc(C(C)(C)CN(C)C)c1 [Ex. 4, 3-[(1-dimethylamino-2-methyl)prop-2-yl]-N-butylphenyl carbamate]",0.0016,0.13,0.25,equal or even superior to that of eptastigmine or of physostigmine,,,
"CCCCCCCNC(=O)Oc1cccc(C(C)(C)CN(C)C)c1 [Ex. 5, 3-[(1-dimethylamino-2-methyl)prop-2-yl]-N-heptyl-phenyl carbamate]",0.03,0.18,0.12,equal or even superior to that of eptastigmine or of physostigmine,,,
"CC(CN(C)C)c1cccc(OC(=O)NCCCCCCCCN2CCOCC2)c1 (stereo not shown) [Ex. 8, 3-[(1-dimethylamino)prop-2-yl]-N-[8-(4-morpholinyl)octyl]-phenyl carbamate]",0.014,0.22,1.3,,,,
"COc1cc2nc(N3CCN(C(=O)CCCCCCCNC(=O)Oc4cccc(C(C)(C)CN(C)C)c4)CC3)nc(N)c2cc1OC [Ex. 12, 3-[(1-dimethylamino-2-methyl)prop-2-yl]-N-[1-[4-(4-amino-6,7-dimethoxy)quinazolin-2-yl]piperazinyl]-8-octanoyl]-phenyl carbamate]",0.05,0.08,0.017,equal or even superior to that of eptastigmine or of physostigmine,,,
"COc1cc2nc(NCCCCCCCNC(=O)Oc3cccc(C(C)(C)CN(C)C)c3)nc(N)c2cc1OC [Ex. 13, 3-[(1-dimethylamino-2-methyl)prop-2-yl]-N-[N-[(4-amino-6,7-dimethoxy)quinazolin-2-yl]aminoheptyl]-phenyl carbamate]",0.028,0.015,0.023,equal or even superior to that of eptastigmine or of physostigmine,,,
"CN(Cc1ccccc1)CC(C)(C)c1cccc(OC(=O)NCCCCCCCCN2CCOCC2)c1 [Ex. 16, 3-[(1-(N-benzyl-N-methyl)amino-2-methyl)prop-2-yl]-N-[8-(4-morpholinyl)-octyl]-phenylcarbamate]",0.007,4.8,14,,,,
"CN(C)CC(C)(C)c1cccc(OC(=O)NCCCCCCCCCCN2CCOCC2)c1 [Ex. 18, 3-[(1-dimethylamino-2-methyl)prop-2-yl]-N-[10-(4-morpholinyl)decyl]-phenylcarbamate]",,0.1,,equal or even superior to that of eptastigmine or of physostigmine,,,
"CN(C)CC(C)(C)c1cccc(OC(=O)Nc2ccccc2)c1 [Ex. 19, 3-[1(1-dimethylamino-2-methyl)prop-2-yl]-N-phenyl phenylcarbamate]",0.23,0.1,,equal or even superior to that of eptastigmine or of physostigmine,,,
"CN(C)CC(C)(C)c1cccc(OC(=O)Nc2cccc(F)c2)c1 [Ex. 20, 3-[(1-dimethylamino-2-methyl)prop-2-yl]-N-(3-fluoro)phenyl phenylcarbamate]",> 100,0.22,,,poor activity on the BuChE,potent and selective AChE inhibitory activity,
"Cc1cccc(NC(=O)Oc2cccc(C(C)(C)CN(C)C)c2)c1 [Ex. 21, 3-[(1-dimethylamino-2-methyl)prop-2-yl]-N-(3-methyl)phenyl phenylcarbamate]",0.5,0.6,,,,,
"COc1cccc(NC(=O)Oc2cccc(C(C)(C)CN(C)C)c2)c1 [Ex. 22, 3-[(1-dimethylamino-2-methyl)prop-2-yl]-N-(3-methoxy)phenyl phenylcarbamate]",0.6,0.21,,,,,
"CN(C)CC(C)(C)c1cccc(OC(=O)Nc2cccc(Cl)c2)c1 [Ex. 23, 3-[(1-dimethylamino-2-methyl)prop-2-yl]-N-(3-chloro)phenyl phenylcarbamate]",> 100,0.22,,,poor activity on the BuChE,potent and selective AChE inhibitory activity,
"CN(C)CC(C)(C)c1cccc(OC(=O)NCc2ccccc2)c1 [Ex. 24, 3-[(1-dimethylamino-2-methyl)prop-2-yl]-N-benzyl-phenylcarbamate]",0.0013,0.06,,equal or even superior to that of eptastigmine or of physostigmine,,,
"CN(C)CC(C)(C)c1cccc(OC(=O)N(C)c2ccccc2)c1 [Ex. 25, 3-[(1-dimethylamino-2-methyl)prop-2-yl]-N-phenyl-N-methyl-phenylcarbamate]",> 1000,1.7,,,poor activity on the BuChE,potent and selective AChE inhibitory activity,"LD50 [5, 7]: 14 mg/kg; LD50 [5, 8]: 56 mg/kg; LD50 ([4]; iv, read-out: Toxicity tests (LD50), mouse iv): 15 mg/kg"
"CN(C)CC(C)(C)c1cccc(OC(=O)N(C)c2cccc(Cl)c2)c1 [Ex. 26, 3-[(1-dimethylamino-2-methyl)prop-2-yl]-N-(3-chloro)-phenyl-N-methyl-phenylcarbamate]",220,0.4,,,poor activity on the BuChE,potent and selective AChE inhibitory activity,
"CCCCN(C(=O)Oc1cccc(C(C)(C)CN(C)C)c1)c1ccccc1 [Ex. 32, 3-[(1-dimethylamino-2-methyl)prop-2-yl]-N-butyl-N-phenyl phenylcarbamate]",70,0.42,,,,,
"COc1ccc(N(C)C(=O)Oc2cccc(C(C)(C)CN(C)C)c2)cc1 [Ex. 35, 3-[(1-dimethylamino-2-methyl)prop-2-yl]-N-methyl-N-(4-methoxy)phenyl phenylcarbamate]",> 100,0.013,,equal or even superior to that of eptastigmine or of physostigmine,poor activity on the BuChE,potent and selective AChE inhibitory activity,"LD50 [5, 7]: 3 mg/kg; LD50 [5, 8]: 40 mg/kg"
"CCN(C(=O)Oc1cccc(C(C)(C)CN(C)C)c1)c1ccc(OC)cc1 [Ex. 36, 3-[(1-dimethylamino-2-methyl)prop-2-yl]-N-ethyl-N-(4-methoxy)phenyl phenylcarbamate]",21,1.1,,,,,
"CN(C)CC(C)(C)c1cccc(OC(=O)N(C)c2ccc(Cl)cc2)c1 [Ex. 37, 3-[(1-dimethylamino-2-methyl)prop-2-yl]-N-(4-chloro)phenyl-N-methyl phenylcarbamate]",8,0.06,,equal or even superior to that of eptastigmine or of physostigmine,poor activity on the BuChE,potent and selective AChE inhibitory activity,
"CN(C)CC(C)(C)c1cccc(OC(=O)N(C)c2cccc(F)c2)c1 [Ex. 38, 3-[(1-dimethylamino-2-methyl)prop-2-yl]-N-(3-fluoro)phenyl-N-methyl phenylcarbamate]",> 100,0.05,,equal or even superior to that of eptastigmine or of physostigmine,poor activity on the BuChE,potent and selective AChE inhibitory activity,"LD50 [5, 8]: > 40 mg/kg"
"CN(C)CC(C)(C)c1cccc(OC(=O)N(C)c2cccc(C(F)(F)F)c2)c1 [Ex. 39, 3-[(1-dimethylamino-2-methyl)prop-2-yl]-N-methyl-N-(3-trifluoromethyl) phenyl phenylcarbamate]",> 100,1.1,,,poor activity on the BuChE,potent and selective AChE inhibitory activity,
"CN(C)CC(C)(C)c1cccc(OC(=O)N(C)C2CCCCC2)c1 [Ex. 40, 3-[(1-dimethylamino-2-methyl)prop-2-yl]-N-cyclohexyl-N-methyl phenylcarbamate]",> 100,0.18,,equal or even superior to that of eptastigmine or of physostigmine,poor activity on the BuChE,potent and selective AChE inhibitory activity,"LD50 [5, 8]: > 40 mg/kg"
"Nc1c2c(nc3ccccc13)CCCC2 [Tacrine, 9-amino-1,2,3,4-tetrahydroacridine]",,,,,,,transaminase levels [6]: induce high transaminase levels
Nc1c2c(nc3ccccc13)CCCC2O (stereo not shown) [Velnacrine],,,,,,,transaminase levels [6]: induce high transaminase levels
